The record followed here is US20230021647A1, “METHOD OF TREATING A PATIENT INFECTED WITH A CORONAVIRUS AND HAVING A BASELINE LEVEL OF CRP BELOW 150 MG/L” (Theravance Biopharma R&D IP, LLC, priority 2021, published 2023).

A short description of series [1]: Phase 1 SAD/MAD study of inhaled compound 1 in healthy subjects. It is filed as in vivo, human. The procedure: This was a phase 1, 2-part, double-blind, randomized, placebo controlled, sponsor-open, SAD (Part A) and MAD (Part B). Subjects participated in only 1 cohort in only 1 study part.
Part A (SAD) consisted of three (3) cohorts of 8 healthy subjects (6 active and 2 placebo). In each cohort, subjects received a single inhaled dose of compound 1 or placebo. […] Cardiodynamic monitoring via Holter monitors was conducted pre-dose and for at least 24 hours following dosing on Day 1 in each cohort, with rest periods for cardiodynamic electrocardiogram (ECG) extractions time matched to the PK sampling time points.
Part B (MAD) consisted of three (3) cohorts of 10 healthy subjects (8 active and 2 placebo). In each cohort, subjects received inhaled doses once daily (QD) for 7 days. […] Blood samples for PK assessment were also collected pre-dose on the morning of Days 3 through 6. Cardiodynamic monitoring via Holter monitors may be conducted pre-dose on Day 1 and pre-dose and for at least 24 hours following dosing on the morning of Day 7 in each cohort with rest periods for cardiodynamic ECG extractions time matched to the PK sampling time points.
In Parts A and B, safety data (i.e., physical examinations, vital signs, 12-lead safety ECGs, spirometry, clinical laboratory tests, and adverse events [AEs]) were assessed throughout the study; and blood and urine samples were collected for safety assessments. All subjects who received at least one dose of study drug (including subjects who terminated the study early) returned to the CRU 7 (±2) days after the last study drug administration for follow-up procedures, and to determine if any AEs have occurred since the last study visit.
In Part B, subjects received inhaled doses QD for 7 days using a nebulizer device.
Morning doses on Days 1 and 7 were administered under fasting conditions due to cardiodynamic monitoring. On all other times, doses were administered at least 30 minutes after completion of a meal or snack. Hour 0 was defined as the beginning of inhalation in each morning dose administration.

Series [2] concerns acute lung injury associated with COVID-19. Description: Phase 2 study Part 2, 3 mg vs placebo in hospitalized COVID-19 patients. It is filed as in vivo, human. As to conditions: for time to recovery, median: placebo 11. As for the experimental part: Eligible subjects were stratified by age (≤60 vs >60 years) and concurrent use of antiviral medications (e.g., remdesivir, lopinavir, chloroquine) at baseline. […] Approximately 20% of participants were enrolled with a baseline clinical status score of six (NIPPV or high flow oxygen device) based on the 8-point ordinal scale (Table 13).
The study drug was administered at 3 mg once-daily in a single dose with an additional 3 mg loading dose on day 1, for up to 7 days or until discharge from the hospital, whichever was earlier. Subjects were followed for up to 28 days or until death, whichever was earlier.
Matching placebo was administered once daily for up to 7 days, via inhalation using a vibrating mesh nebulizer.
In Part 2, the primary endpoint was the number of RFDs from randomization through Day 28. Secondary Endpoints were: change from baseline in SaO2/FiO2 ratio on Day 7, proportion of subjects in each category of the 8-point clinical status scale on Days 7, 14, 21 and 28, and proportion of subjects alive and respiratory failure-free on Day 28. […] Additional exploratory endpoints may include: change from baseline in SaO2/FiO2 ratio in mmHg on Day 7, number of VFDs from randomization to Day 28, proportion of subjects with a SaO2/FiO2 ratio >300 on Days 5 and 7, proportion of subjects in each category of the 6-point clinical status scale on Days 7, 14, 21 and 28, proportion of subjects in each category of vital status (death, discharge, hospitalized) on Days 7, 14, 21 and 28, proportion of subjects with an oxygen saturation >90% on room air, proportion of subjects with fever (>37° C. oral or equivalent), chest imaging (when done for clinical care reasons), biomarkers including: nasal SARS-CoV-2 viral load. The safety endpoints were: change from baseline in vital signs and clinical laboratory results, and incidence and severity of TEAEs. The PK endpoints were population PK parameters for compound 1.
The primary endpoint was the number of respiratory failure-free days (RFDs) from randomization through Day 28. A RFD was defined as a day that a subject is alive and not requiring the use of invasive mechanical ventilation, non-invasive positive pressure ventilation, high-flow oxygen devices, or oxygen supplementation from randomization through Day 28. A clinical status score of <4 (Table 13) was equivalent to a respiratory failure-free day. The number of RFDs was 0 for subjects who use respiratory support for 28 days or longer, or for subjects who died on or before Day 28.
Treatment comparisons were performed using a Van Elteren test (a stratified Wilcoxon rank sum test) adjusting for stratification factors. Treatment difference were summarized based on median of RFD between compound 1 and placebo. Additional prognostic baseline covariates (e.g., comorbidities) were included in the sensitivity analyses.
For SaO2/FiO2, treatment comparisons versus placebo were conducted using a mixed-model repeated measures (MMRM) model. The model included fixed effects for randomized treatment group, study day (Day 7, 14, 21 and 28), treatment group by study day interaction, baseline SaO2/FiO2 ratio, treatment group by baseline SaO2/FiO2 ratio interaction, and stratification factors (baseline age group ≤60 vs >60 years, and concurrent use of antiviral medication at baseline Yes vs. No). A random effect for subject was also included in the model. An unstructured covariance matrix was used to estimate covariance of within-patient scores. The Kenward-Roger approximation was used to estimate denominator degrees of freedom. From this model, least squares means, standard errors, treatment differences in LS means, and 95% confidence intervals (CIs) were estimated.

The mark [3] stands for this setting: single and multiple inhaled doses.

In general, Cmax refers to the maximum level reached in the sampled fluid or tissue. `CCc1cc(O)ccc1-c1ccc2c(-c3nc4c([nH]3)CN(C(C)C)[C@H](C(=O)N3CC(N(C)C)C3)C4)n[nH]c2c1` [Compound 1, (S)-(3-(dimethylamino)azetidin-1-yl)(2-(6-(2-ethyl-4-hydroxyphenyl)-1H-indazol-3-yl)-5-isopropyl-4,5,6,7-tetrahydro-3H-imidazo[4,5-c]pyridin-6-yl)methanone] registered an AUC0-24 in series [1] (1 mg QD inhaled, Day 1) of 18.42 ng·h/mL. In addition, in series [1] (1 mg QD inhaled, Day 7), the Cmax stood at 5.699 ng/mL. Further, the Tmax result in series [1] (setting [3]) is “approximately 1 hour”. The terminal elimination half-life entry in series [1] (setting [3]) is “approximately 24 hours”. Besides, the t1/2 in series [1] (single inhaled dose 3 mg, mean (SD)) was 24.73 (2.802) hr. Moreover, the plasma exposure entry in series [2] (Part 2) is on record as “low”. For the same compound, in series [2] (Part 2), the tolerability entry is reported as “well-tolerated”. Also, in series [2] (Part 2, placebo 2.0%), the “serious infections, patients” value was determined as 1.0%. Further, the “venous thromboembolism, patients” value in series [2] (Part 2, placebo 4.9%) is recorded as “none”. Further, in series [2] (Part 2, placebo 7.8%), the “adverse events of liver abnormalities or disease, patients” value was 9.7%. In addition, in series [2] (Part 2, placebo 13 (12.7%)), the “patients discontinued from study, withdrawal for adverse event” value was 8 (7.8%) n (%). Further, in series [2] (Part 2, placebo 15.7%), the “serious adverse events, patients” value is 9.7%. Further, the “adverse events, patients” value in series [2] (Part 2, placebo 41.2%) came out at 34.0%. Besides, the “secondary endpoints vs placebo: change in SaO2/FiO2 at Day 7, 8-point Clinical Status, alive and respiratory failure-free at Day 28” value in series [2] (Part 2 ITT) is “no difference”. Besides, the “28-day all-cause mortality HR” value in series [2] (Part 2 ITT vs placebo, p=0.08) was found to be 0.42; in series [2] (Part 2 post-hoc, baseline CRP <150 mg/L vs placebo, p=0.009) it was 0.097. The “time to recovery HR” value in series [2] (Part 2 ITT vs placebo, p=0.12) is given as 1.27; in series [2] (Part 2 post-hoc, baseline CRP <150 mg/L vs placebo, p=0.02) it was 1.48. Also, in series [2] (Part 2 ITT, 3 mg QD, placebo 21, p=0.61), the “RFDs from randomization through Day 28, median” value is given as 21 days. For the same compound, the “time to recovery, median” value was found to be 10 days in series [2] (Part 2 ITT) and 10 days in series [2] (Part 2 post-hoc, baseline CRP <150 mg/L). For the same compound, the “28-day all-cause mortality, total number of deaths” value was found to be 6 in series [2] (Part 2 ITT, placebo 13) and 1 in series [2] (Part 2 post-hoc, baseline CRP <150 mg/L, placebo 9). For the same compound, in series [2] (Part 2 post-hoc, baseline CRP >150 mg/L (n=30)), the “time to recovery or 28-day all-cause mortality vs placebo” value is “no difference”.
